Assay results: US9629835B1, “Method for treating tau-associated diseases” (NATIONAL TAIWAN NORMAL UNIVERSITY, priority 2016, dated 2017)

How the values were obtained:
[1] = tested on: ΔK280 tauRD-DsRed 293 cells; assay: DsRed fluorescence (tau aggregation) in Tet-On ΔK280 tauRD-DsRed 293 cells, high content analysis; type: cell-based, human; conditions: for DsRed fluorescence intensity relative to untreated cells (100%): 10 μM, 8 h pre-treatment, doxycycline 3 days
Protocol: We used HEK-293 human cells expressing a DsRed-tagged proaggregation mutant (ΔK280) of the C-terminal repeat domain of tau (tauRD-Gln^244-Glu^372 of the longest tau^441 isoform). The recombinant tauRD-DsRed construct was under the control of a hybrid human cytomegalovirus (CMV)/TetO2 promoter that can be induced by adding doxycycline. The Tet-On ΔK280tauRD-DsRed293 cells were grown in medium containing blasticidin (5 μg/mL) and hygromycin (100 μg/mL) and were used for the following evaluation.
(§1) TauRD-DsRed 293 cells were plated into 96-well plates, grown for 24 h, and treated with 0.1, 1, 10 μM of congo red (a known tau aggregation inhibitor), compound (I), compound (II), and compound (III) (SB216763) for 8 h. Then doxycycline (Dox; 1 μg/mL) was added for 3 days and DsRed fluorescence was assessed using a high content analysis system (HCA) system (ImageXpressMICRO, Molecular Devices).
According to the fluorescence microscopy images of untreated cells, and cells treated with congo red, compound (I), compound (II), and SB216763, the quantification results are shown in FIG. 1 which were analyzed related to 100% fluorescence intensity of the untreated cells. […] Based on the results that described above, compound (I) and compound (II) have the ability to decrease tau-aggregation in tauRD-DsRed 293 cells (*p<0.05, **p<0.01).

[2] = tested on: mouse hippocampal primary culture cells; assay: Mouse hippocampal primary culture under tau toxicity induced by Wortmannin and GF 109203X; type: cell-based; conditions: 1 μM, 12 hours, with 10 nM Wortmannin and GF 109203X
Protocol: The mouse hippocampal primary culture cells were isolated from the hippocampi of C57BL/6J mouse embryos at days 16-18. On days in vitro (DIV) 4 and 7, 2 μM of cytosine arabinoside was added to the culture medium to reduce the glial cell populations. On DIV 9, the cells were treated with 10 nM of Wortmannin (WT) and GF 109203X (GFX) to induce tau hyperphosphorylation to mimic an AD condition.
1 μM of compound (I) or compound (II) were then added to the cells at DIV 9. Cells were harvested 12 hours later for immunocytochemical staining with NeuN (for neuron) and MAP2 (for neurite morphology) antibodies.
The quantification of neuron numbers (NeuN relative expression levels), neurite outgrowth, and the relative number of neuron branches are shown in FIG. 7 to FIG. 9 (*, vs. control; #, vs. WT+GFX. * p<0.05; **/##p<0.01; ###p<0.001). […] The results indicated significant neuronal protective effects of compound (I) and compound (II).

[3] = Cytotoxicity in tauRD-DsRed 293 cells; type: cell-based; conditions: human, 50% of viability
Protocol: as §1
Also, IC50 cytotoxicity of tauRD-DsRed 293 cells is shown in FIG. 2, wherein the standard line represents 50% of viability.

Recombinant human GSK-3β = molecular target: T1, Recombinant human GSK-3β (Homo sapiens, UniProt P49841); assay: GSK-3β kinase activity, ADP-Glo Kinase Assay; type: biochemical
T1 construct: purchased Promega V1991
T1 sequence (P49841 whole entry): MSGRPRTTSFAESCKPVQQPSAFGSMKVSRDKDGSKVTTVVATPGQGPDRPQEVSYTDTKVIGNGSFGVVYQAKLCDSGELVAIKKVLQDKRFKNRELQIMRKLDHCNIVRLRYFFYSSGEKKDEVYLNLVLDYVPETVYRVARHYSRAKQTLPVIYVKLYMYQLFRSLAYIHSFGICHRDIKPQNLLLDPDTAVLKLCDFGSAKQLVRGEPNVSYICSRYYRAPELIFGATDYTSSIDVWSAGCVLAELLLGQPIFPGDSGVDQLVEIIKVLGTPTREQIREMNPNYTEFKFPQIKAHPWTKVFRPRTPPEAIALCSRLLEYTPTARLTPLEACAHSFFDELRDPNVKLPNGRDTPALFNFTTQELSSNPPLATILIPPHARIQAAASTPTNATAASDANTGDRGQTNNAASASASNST
Protocol: GSK-3β kinase activity was measured in the presence of the tested compounds (I) and (II) using ADP-Glo™ Kinase Assay system (Promega). Recombinant human GSK-3β (Product code V1991, Promega) was used as the enzyme source, and the GSK-3β substrate was derived from human muscle glycogen synthase 1 peptide ([…](pS)EDEEE) which corresponded to a region of glycogen synthase that was phosphorylated by GSK-3β. Reactions were performed at 30° C. for 30 minutes in the 25 μL mixture that contained 25 μM ATP, 0.2 mg/mL GSK-3β substrate, 1 ng of GSK-3β, and serial dilutions of compound (I), compound (II), or compound (III). Kinase activity data were measured as relative light units (RLU) directly correlated with the amount of ADP produced.
The IC50 values of compound (I), compound (II), and compound (III) were determined by using SigmaPLOT software. […] When the concentration of compound (I) and compound (II) were […] μM, the residual activities of GSK-3β of compounds (I) and (II) were 36.1±1.1%, and 90.9±6.6%, respectively.

GSK-3β = assay: Western blot of total GSK-3β and phosphorylated GSK-3β (Ser9) in tauRD-DsRed SH-SY5Y cells; type: cell-based, human; conditions: 10 μM
Protocol: We used human neuroblastoma cells (SH-SY5Y) expressing a DsRed-tagged proaggregation mutant (ΔK280) of the C-terminal repeat domain of tau (tauRD-Gln^244-Glu^372 of the longest tau^441 isoform). The recombinant tauRD-DsRed construct was under the control of a hybrid human cytomegalovirus (CMV)/TetO2 promoter that can be induced by adding doxycycline. The Tet-On ΔK280 tauRD-DsRed SH-SY5Y cells were grown in medium containing blasticidin (5 μg/mL) and hygromycin (100 μg/mL) and were then used for the following evaluation. […]
First, SH-SY5Y tauRD-DsRed cells were seeded in 6-well plates (1×10^5/well) in a medium containing all-trans retinoic acid ([…] Sigma) for inducing the neural differentiation. […] Next, immunoreactive bands were detected using horseradish peroxidase-conjugated goat anti-mouse, goat anti-rabbit, or donkey anti-goat IgG antibodies (1:5000; GeneTex) and chemiluminescent substrate (Millipore) for evaluating the expression levels thereof in cells.
The expression levels of total GSK-3β and phosphorylated GSK-3β are shown in FIG. 3 and the quantifications thereof are shown in FIG. 4 (*p<0.05, ***p<0.001). […]

Structure (SMILES) | DsRed fluorescence intensity relative to untreated cells (100%) [1] [%] | neuronal protective effect (NeuN neuron number, neurite length, neurite branches) [2] | IC50 [3] [µM] | remaining activity at 0.018 µM (Recombinant human GSK-3β; compound concentration 0.018 μM, read-out: residual activity of GSK-3β) [%] | IC50 (Recombinant human GSK-3β; recombinant human GSK-3β, 25 μM ATP, 30° C., 30 minutes) [µM] | total GSK-3β expression vs untreated cells (GSK-3β) | effect on tauRD-DsRed fluorescence ([1]; 0.1, 1, 10 μM)
Cc1ccc(-c2cc(-c3ccncc3)nc3ccccc23)cc1 [compound (I)] | 116 | alleviate the reduction of neuronal survival rate, neurite length, and/or neurite branches | 25.7 | 36.1 ± 1.1 | 0.0002 | remained about the same without significant changes | 
Nc1c(/N=N/c2ccc(-c3ccc(/N=N/c4cc(S(=O)(=O)O)c5ccccc5c4N)cc3)cc2)cc(S(=O)(=O)O)c2ccccc12 [congo red] | 110 |  |  |  |  |  | 
CN1CC(C2=C(c3ccc(Cl)cc3Cl)C(=O)NC2=O)c2ccccc21 (centres unmarked) [compound (III), reference compound] |  |  |  |  |  |  | no effect
